From PMC10787398, “Simultaneous determination of colistin sulfate and tigecycline in human plasma by liquid chromatography-tandem mass spectrometry method” (BMC Chemistry, 2024)

Assays:
[1] = Plasma trough and peak concentrations in patients on intravenous polymyxin and tigecycline (HPLC-MS/MS); settings: First dose 100 mg maintenance dose 50 mg q12h iv, plasma, HPLC-MS/MS; for Tigecycline Peak concentration: 30 min after 7th administration; for Tigecycline Trough concentration: before 7th administration
Text: Plasma samples were collected from patients receiving simultaneous intravenous polymyxin and tigecycline treatment. Inclusion criteria: ① Patients receiving simultaneous intravenous polymyxin and tigecycline treatment; ② Age ≥ 18 years; ③ Patients who consent to the monitoring of polymyxin and tigecycline blood drug concentrations during treatment. Exclusion criteria: ① Pregnant or lactating women; ② Treatment duration < 3 days; ③ Local administration; ④ Blood dialysis treatment. Once the blood drug concentration reached a steady state, 3 ml of venous blood was collected before and 30 min after the seventh administration to measure the peak and trough concentrations. This study was conducted with approval from the Ethics Committee of Second Hospital of Hebei Medical University (2020-R551). This study was conducted in accordance with the declaration of Helsinki.
Two hundred microliters of the plasma sample were adopted, with 20 µL of the internal standard added, and it was vortexed for 20 s. Two hundred microliters of 5% trichloroacetic acid was added for acidification and vortexed for 10 s. Two hundred microliters of methanol was added for extraction, vortexed for 2 min, and centrifuged at 10,900 r/min for 5 min. Two hundred microliters of the supernatant were aspirated into the injection bottle, and 10 µL of the sample was injected for the HPLC–MS/MS analysis.
All patients received an initial dose of 100 mg and a maintenance dose of 50 mg q12h for tigecycline. Three milliliters of venous blood were collected before and after the seventh administration to measure the peak and trough concentrations of the drugs.

[2] = Stability of analytes in spiked plasma samples under storage conditions; type: in vitro ADME, human; settings: for Measured value, Stored at -80℃ for 7 days / Measured value, Automatic sampler 15℃ for 24 h / Measured value, Freeze-thaw for 3 cycles / Measured value, At 4℃ for 12 h / Measured value, At room temperature for 6 h: HPLC-MS/MS, n = 5; for Measured value, Automatic sampler 15℃ for 24 h: automatic sampler 15 ℃ 24 h; for Measured value, Freeze-thaw for 3 cycles: frozen at -80 °C and thawed at room temperature; for Measured value, At 4℃ for 12 h: refrigerator 4 °C 12 h
Protocol: Plasma samples with low, medium, and high mass concentrations were prepared (the mass concentrations of colistin sulfate were 0.1, 1, and 8 µg/mL, respectively, and those of tigecycline were 0.05, 0.5, and 4 µg/mL, respectively). Five replicates of each concentration were prepared and placed in a refrigerator at 4 °C for 12 h, at room temperature for 6 h, and in an automatic sampler at 15 ℃ for 24 h. The samples were, on three occasions, frozen at − 80 °C and thawed at room temperature, and then placed in a − 80 °C refrigerator for seven days. The concentrations and RSDs of colistin sulfate and tigecycline in the plasma samples were calculated based on the accompanying standard curve of the day to evaluate their stabilities.

[3] = patient 1 (BMI 27.04 kg/m^2, CrCL 107 ml/min, ALB 33.8 g/L)
[4] = patient 2 (BMI 27.69 kg/m^2, CrCL 36 ml/min, ALB 30.35 g/L)
[5] = patient 3 (BMI 23.88 kg/m^2, CrCL 90 ml/min, ALB 26.80 g/L)
[6] = patient 4 (BMI 18.72 kg/m^2, CrCL 111 ml/min, ALB 32.50 g/L)
[7] = patient 5 (BMI 22.14 kg/m^2, CrCL 84 ml/min, ALB 28.00 g/L)
[8] = patient 6 (Femaee, BMI 19.3 kg/m^2, CrCL 161 ml/min, ALB 35.3 g/L)
[9] = patient 7 (BMI 24.16 kg/m^2, CrCL 59 ml/min, ALB 36.72 g/L)
[10] = patient 8 (BMI 27.44 kg/m^2, CrCL 98 ml/min, ALB 33.30 g/L)
[11] = patient 9 (BMI 20.91 kg/m^2, CrCL 106 ml/min, ALB 32.71 g/L)
[12] = patient 10 (BMI 21.95 kg/m^2, CrCL 129 ml/min, ALB 31.89 g/L)
[13] = patient 11 (BMI 22.51 kg/m^2, CrCL 27 ml/min, ALB 27.10 g/L)
[14] = patient 12 (BMI 23.71 kg/m^2, CrCL 170 ml/min, ALB 32.50 g/L)
[15] = plasma QC high, nominal colistin sulfate 8 µg/mL, tigecycline 4 µg/mL
[16] = plasma QC low, nominal colistin sulfate 0.1 µg/mL, tigecycline 0.05 µg/mL
[17] = plasma QC medium, nominal colistin sulfate 1 µg/mL, tigecycline 0.5 µg/mL

Tigecycline Peak concentration [1, 3]: 1.72 µg/mL
Tigecycline Trough concentration [1, 3]: 0.79 µg/mL
Tigecycline Peak concentration [1, 4]: 1.68 µg/mL
Tigecycline Trough concentration [1, 4]: 0.81 µg/mL
Tigecycline Peak concentration [1, 5]: 1.67 µg/mL
Tigecycline Trough concentration [1, 5]: 0.77 µg/mL
Tigecycline Peak concentration [1, 6]: 1.47 µg/mL
Tigecycline Trough concentration [1, 6]: 0.69 µg/mL
Tigecycline Peak concentration [1, 7]: 1.17 µg/mL
Tigecycline Trough concentration [1, 7]: 0.58 µg/mL
Tigecycline Peak concentration [1, 8]: 1.11 µg/mL
Tigecycline Trough concentration [1, 8]: 0.66 µg/mL
Tigecycline Peak concentration [1, 9]: 1.01 µg/mL
Tigecycline Trough concentration [1, 9]: 0.58 µg/mL
Tigecycline Peak concentration [1, 10]: 0.92 µg/mL
Tigecycline Trough concentration [1, 10]: 0.63 µg/mL
Tigecycline Peak concentration [1, 11]: 1.22 µg/mL
Tigecycline Trough concentration [1, 11]: 0.65 µg/mL
Tigecycline Peak concentration [1, 12]: 1.08 µg/mL
Tigecycline Trough concentration [1, 12]: 0.33 µg/mL
Tigecycline Peak concentration [1, 13]: 0.99 µg/mL
Tigecycline Trough concentration [1, 13]: 0.25 µg/mL
Tigecycline Peak concentration [1, 14]: 1.78 µg/mL
Tigecycline Trough concentration [1, 14]: 0.48 µg/mL
Measured value, Stored at -80℃ for 7 days ([2]; plasma QC high, nominal colistin sulfate 8 µg/mL, tigecycline 4 µg/mL, -80 °C 7 days): 4.30 ± 0.03 µg/mL
Measured value, Automatic sampler 15℃ for 24 h [2, 15]: 4.00 ± 0.26 µg/mL
Measured value, Freeze-thaw for 3 cycles [2, 15]: 3.82 ± 0.45 µg/mL
Measured value, At 4℃ for 12 h [2, 15]: 3.93 ± 0.36 µg/mL
Measured value, At room temperature for 6 h ([2]; plasma QC high, nominal colistin sulfate 8 µg/mL, tigecycline 4 µg/mL, room temperature 6 h): 4.87 ± 0.07 µg/mL
Measured value, Stored at -80℃ for 7 days ([2]; plasma QC low, nominal colistin sulfate 0.1 µg/mL, tigecycline 0.05 µg/mL, -80 °C 7 days): 0.05 ± 0.00 µg/mL
Measured value, Automatic sampler 15℃ for 24 h [2, 16]: 0.05 ± 0.00 µg/mL
Measured value, Freeze-thaw for 3 cycles [2, 16]: 0.05 ± 0.00 µg/mL
Measured value, At 4℃ for 12 h [2, 16]: 0.05 ± 0.00 µg/mL
Measured value, At room temperature for 6 h ([2]; plasma QC low, nominal colistin sulfate 0.1 µg/mL, tigecycline 0.05 µg/mL, room temperature 6 h): 0.05 ± 0.00 µg/mL
Measured value, Stored at -80℃ for 7 days ([2]; plasma QC medium, nominal colistin sulfate 1 µg/mL, tigecycline 0.5 µg/mL, -80 °C 7 days): 0.46 ± 0.03 µg/mL
Measured value, Automatic sampler 15℃ for 24 h [2, 17]: 0.49 ± 0.03 µg/mL
Measured value, Freeze-thaw for 3 cycles [2, 17]: 0.52 ± 0.04 µg/mL
Measured value, At 4℃ for 12 h [2, 17]: 0.46 ± 0.01 µg/mL
Measured value, At room temperature for 6 h ([2]; plasma QC medium, nominal colistin sulfate 1 µg/mL, tigecycline 0.5 µg/mL, room temperature 6 h): 0.54 ± 0.03 µg/mL
stability under the above conditions ([2]; plasma samples, 4 °C 12 h, room temperature 6 h, autosampler 15 ℃ 24 h, 3 freeze-thaw cycles, -80 °C 7 days): good stability
Compound: CN(C)c1cc(NC(=O)CNC(C)(C)C)c(O)c2c1C[C@H]1C[C@H]3[C@H](N(C)C)C(O)=C(C(N)=O)C(=O)[C@@]3(O)C(O)=C1C2=O [Tigecycline, tigecycline]
